Assay results reported in patent US10413610B2, “Liquid formulation” (Luoda Pharma Pty Ltd, priority 2012, dated 2019).

Assays:
[1] = design: species or system dogs; details: dog, in vivo
Excerpt: The results for both IVPs 3 and 4 are consistent with this value.

[2] = cited from earlier work

Structure (SMILES)	published AUC for benazeprilat scaled to a dose of 0.25 mg/kg [1] [ng/h/mL]	effect of addition of HPβCD on aqueous solubility of pimobendan ([2]; pH between 3 and 5)	solubility at pH 7 ([2]; water, pH 7) [mg per 100 mL]	volume of water in which 1 g of pimobendan dissolves ([2]; water)
CCOC(=O)[C@H](CCc1ccccc1)N[C@H]1CCc2ccccc2N(CC(=O)O)C1=O [benazepril, Benazepril]	114.9	–	–	–
COc1ccc(-c2nc3ccc(C4=NNC(=O)CC4C)cc3[nH]2)cc1 (racemic) [pimobendan, (RS)-6-[2-(4-methoxyphenyl)-1H-benzimidazol-5-yl]-5-methyl-4,5-dihydropyridazin-3(2H)-one]	–	does not effectively increase the aqueous solubility	0.1	10,000 mL
